system: redroot pigweed; test: Test Example 4: herbicidal effect by soil treatment (Table 19, symbol N); type: in vivo, redroot pigweed (Amaranthus retroflexus); conditions: AAH 320 g/ha
In short: (§1)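 Seeds were sown in sterilized diluvial soil and covered with about 1.5 cm of soil. An emulsion formulation diluted with water to a predetermined herbicide amount was sprayed evenly onto the soil surface. Plants grew in a greenhouse at 25° C. to 30° C., and the effect was scored three weeks after application using criteria from an earlier test.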

Question: `CCCC(=O)Oc1c(C)nn(C)c(=O)c1-c1c(-c2ccc(C(F)(F)F)cc2)sc2ccccc12` [1-130] was tested. Which “N: redroot pigweed, herbicidal effect rating” value did it give?
Answer: Its value is 3 (Herbicidal rate of 40% or more and less than 70%).

same assay, conditions: amount of applied herbicide 320 g/ha

Question: With `CCCC(=O)Oc1c(C)nn(C)c(=O)c1-c1c(-c2ccc(SC)cc2)sc2ccccc12` [1-037] as the molecule, how does the “herbicidal effect rating, N: redroot pigweed” value read?
Answer: Its value is 5 (Herbicidal rate of 90% or more (almost completely withered)).

system: barnyard grass; test: Test Example 3: herbicidal effect by foliage application, Wagner pot (Table 18, symbol H); type: in vivo, barnyard grass (Echinochloa crus-galli); conditions: 320 g/ha
In short: (§2)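 Plants were sown in alluvial soil held under 0.1–0.5 cm standing water and grown 14 days in a greenhouse at 25–30 °C. An emulsifiable formulation, water-diluted to the set dose, was then sprayed onto the foliage, and effects were scored three weeks later using previously defined criteria.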

Question: `CCCC(=O)Oc1c(C)nn(C)c(=O)c1-c1c(-c2ccc(SC)cc2)sc2ccccc12` [1-037] was tested. Which “herbicidal effect on H (barnyard grass), rating 0-5” value did it give?
Answer: Its value is 5 (Herbicidal rate of 90% or more (almost completely withered)).

Question: `CCCC(=O)Oc1c(C)nn(C)c(=O)c1-c1c(-c2ccc(C(F)(F)F)cc2)sc2ccccc12` [1-130] was tested. Which “herbicidal effect on H (barnyard grass), rating 0-5” value did it give?
Answer: Its value is 4 (Herbicidal rate of 70% or more and less than 90%).

system: Italian ryegrass; test: Test Example 4: herbicidal effect by soil treatment (Table 19, symbol K); type: in vivo, Italian ryegrass (Lolium multiflorum); conditions: AAH 320 g/ha
In short: as §1

Question: Which “K: Italian ryegrass, herbicidal effect rating” value does the source give for `CCCC(=O)Oc1c(C)nn(C)c(=O)c1-c1c(-c2ccc(C(F)(F)F)cc2)sc2ccccc12` [1-130] here?
Answer: Its value is 4 (Herbicidal rate of 70% or more and less than 90%).

same assay, conditions: amount of applied herbicide 320 g/ha

Question: With `CCCC(=O)Oc1c(C)nn(C)c(=O)c1-c1c(-c2ccc(SC)cc2)sc2ccccc12` [1-037] as the molecule, how does the “herbicidal effect rating, K: Italian ryegrass” value read?
Answer: The value was 1 (Herbicidal rate of 5% or more and less than 20%).

system: blackgrass; test: Test Example 5: herbicidal effect by foliage application, plastic box (Table 20, symbol J); type: in vivo, blackgrass (Alopecurus myosuroides); conditions: foliage application, 320 g/ha, three weeks after application
In short: (§3)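 Plants sown in sterilized diluvial soil and grown 14 days in a greenhouse at 25° C to 30° C, then sprayed on the foliage with the compound's emulsion diluted in water to a predetermined herbicide amount. Injury to weeds and crops scored three weeks after application on a visual rating scale.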

Question: How did the “herbicidal effect grade, J: blackgrass” value turn out when `CCCC(=O)Oc1c(C)nn(C)c(=O)c1-c1c(-c2ccc(SC)cc2)sc2ccccc12` [1-037] was run?
Answer: Its value is 4 (Herbicidal rate of 70% or more and less than 90%).

same assay, conditions: foliage application, AAH 320 g/ha, three weeks after application

Question: With `CCCC(=O)Oc1c(C)nn(C)c(=O)c1-c1c(-c2ccc(C(F)(F)F)cc2)sc2ccccc12` [1-130] as the molecule, how does the “J: blackgrass, herbicidal effect” value read?
Answer: The value was 0 (Herbicidal rate of 5% or less (almost no effect)).

system: rice flat sedge; test: Test Example 3: herbicidal effect by foliage application, Wagner pot (Table 18, symbol E); type: in vivo, rice flat sedge (Cyperus iria); conditions: 320 g/ha
In short: as §2

Question: With `CCCC(=O)Oc1c(C)nn(C)c(=O)c1-c1c(-c2ccc(SC)cc2)sc2ccccc12` [1-037] as the molecule, how does the “herbicidal effect on E (rice flat sedge), rating 0-5” value read?
Answer: Its value is 5 (Herbicidal rate of 90% or more (almost completely withered)).

Question: How did the “herbicidal effect on E (rice flat sedge), rating 0-5” value turn out when `CCCC(=O)Oc1c(C)nn(C)c(=O)c1-c1c(-c2ccc(C(F)(F)F)cc2)sc2ccccc12` [1-130] was run?
Answer: Its value is 5 (Herbicidal rate of 90% or more (almost completely withered)).

system: Japanese bulrush; test: Test Example 1: herbicidal activity, application before weed generation under submerged conditions (Table 16, symbol B); type: in vivo, Japanese bulrush (Schoenoplectus juncoides); conditions: 320 g/ha applied herbicide
In short: (§4)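 Submerged Wagner pots (alluvial soil, 4 cm water) sown with weed seeds and planted with 2.5-leaf rice seedlings; emulsifiable concentrate diluted in water applied to water surface on sowing day. Held in greenhouse at 25-30 °C; injury scored 0-5 by herbicidal rate after three weeks.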

Question: For `CCCC(=O)Oc1c(C)nn(C)c(=O)c1-c1c(-c2ccc(SC)cc2)sc2ccccc12` [1-037], which “Herbicidal effect on B: Japanese bulrush (grade 0-5)” value is on record?
Answer: The value was 4 (Herbicidal rate of 70% or more and less than 90%).

Question: `CCCC(=O)Oc1c(C)nn(C)c(=O)c1-c1c(-c2ccc(C(F)(F)F)cc2)sc2ccccc12` [1-130] was tested. Which “Herbicidal effect on B: Japanese bulrush (grade 0-5)” value did it give?
Answer: The value was 3 (Herbicidal rate of 40% or more and less than 70%).

system: late watergrass; test: Test Example 1: herbicidal activity, application before weed generation under submerged conditions (Table 16, symbol A); type: in vivo, late watergrass (Echinochloa oryzicola); conditions: 320 g/ha applied herbicide
In short: as §4

Question: Which “Herbicidal effect on A: late watergrass (grade 0-5)” value does the source give for `CCCC(=O)Oc1c(C)nn(C)c(=O)c1-c1c(-c2ccc(SC)cc2)sc2ccccc12` [1-037] here?
Answer: The value was 4 (Herbicidal rate of 70% or more and less than 90%).

Question: For `CCCC(=O)Oc1c(C)nn(C)c(=O)c1-c1c(-c2ccc(C(F)(F)F)cc2)sc2ccccc12` [1-130], which “Herbicidal effect on A: late watergrass (grade 0-5)” value is on record?
Answer: The value was 3 (Herbicidal rate of 40% or more and less than 70%).

system: Chinese sprangletop; test: Test Example 3: herbicidal effect by foliage application, Wagner pot (Table 18, symbol D); type: in vivo, chinese sprangletop (Leptochloa chinensis); conditions: 320 g/ha
In short: as §2

Question: How did the “herbicidal effect on D (Chinese sprangletop), rating 0-5” value turn out when `CCCC(=O)Oc1c(C)nn(C)c(=O)c1-c1c(-c2ccc(SC)cc2)sc2ccccc12` [1-037] was run?
Answer: The value was 3 (Herbicidal rate of 40% or more and less than 70%).

Question: `CCCC(=O)Oc1c(C)nn(C)c(=O)c1-c1c(-c2ccc(C(F)(F)F)cc2)sc2ccccc12` [1-130] was tested. Which “herbicidal effect on D (Chinese sprangletop), rating 0-5” value did it give?
Answer: The value was 3 (Herbicidal rate of 40% or more and less than 70%).

system: Italian ryegrass; test: Test Example 5: herbicidal effect by foliage application, plastic box (Table 20, symbol K); type: in vivo, Italian ryegrass (Lolium multiflorum); conditions: foliage application, 320 g/ha, three weeks after application
In short: as §3

Question: For `CCCC(=O)Oc1c(C)nn(C)c(=O)c1-c1c(-c2ccc(SC)cc2)sc2ccccc12` [1-037], which “herbicidal effect grade, K: Italian ryegrass” value is on record?
Answer: The value was 4 (Herbicidal rate of 70% or more and less than 90%).

same assay, conditions: foliage application, AAH 320 g/ha, three weeks after application

Question: How did the “K: Italian ryegrass, herbicidal effect” value turn out when `CCCC(=O)Oc1c(C)nn(C)c(=O)c1-c1c(-c2ccc(C(F)(F)F)cc2)sc2ccccc12` [1-130] was run?
Answer: Its value is 5 (Herbicidal rate of 90% or more (almost completely withered)).

system: redroot pigweed; test: Test Example 5: herbicidal effect by foliage application, plastic box (Table 20, symbol N); type: in vivo, redroot pigweed (Amaranthus retroflexus); conditions: foliage application, 320 g/ha, three weeks after application
In short: as §3

Question: `CCCC(=O)Oc1c(C)nn(C)c(=O)c1-c1c(-c2ccc(SC)cc2)sc2ccccc12` [1-037] was tested. Which “herbicidal effect grade, N: redroot pigweed” value did it give?
Answer: The value was 5 (Herbicidal rate of 90% or more (almost completely withered)).

same assay, conditions: foliage application, AAH 320 g/ha, three weeks after application

Question: How did the “N: redroot pigweed, herbicidal effect” value turn out when `CCCC(=O)Oc1c(C)nn(C)c(=O)c1-c1c(-c2ccc(C(F)(F)F)cc2)sc2ccccc12` [1-130] was run?
Answer: The value was 4 (Herbicidal rate of 70% or more and less than 90%).

system: barnyard grass; test: Test Example 5: herbicidal effect by foliage application, plastic box (Table 20, symbol H); type: in vivo, barnyard grass (Echinochloa crus-galli); conditions: foliage application, 320 g/ha, three weeks after application
In short: as §3

Question: Which “herbicidal effect grade, H: barnyard grass” value does the source give for `CCCC(=O)Oc1c(C)nn(C)c(=O)c1-c1c(-c2ccc(SC)cc2)sc2ccccc12` [1-037] here?
Answer: Its value is 4 (Herbicidal rate of 70% or more and less than 90%).

same assay, conditions: foliage application, AAH 320 g/ha, three weeks after application

Question: Which “H: barnyard grass, herbicidal effect” value does the source give for `CCCC(=O)Oc1c(C)nn(C)c(=O)c1-c1c(-c2ccc(C(F)(F)F)cc2)sc2ccccc12` [1-130] here?
Answer: Its value is 0 (Herbicidal rate of 5% or less (almost no effect)).

system: late watergrass; test: Test Example 2: herbicidal activity, application during weed generation under submerged conditions (Table 17, symbol A); type: in vivo, late watergrass (Echinochloa oryzicola); conditions: AAH 320 g/ha; application during weed generation, submerged conditions
In short: (§5)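 3-wk visual-criteria score after one water-surface dose. Emulsion formulation, water-diluted to set rate; applied at 1–2 leaf stage; alluvial soil, 4 cm standing water; seeds co-sown; greenhouse 25–30° C.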

Question: For `CCCC(=O)Oc1c(C)nn(C)c(=O)c1-c1c(-c2ccc(SC)cc2)sc2ccccc12` [1-037], which “herbicidal effect rating, A: late watergrass” value is on record?
Answer: The value was 0 (Herbicidal rate of 5% or less (almost no effect)).

Question: For `CCCC(=O)Oc1c(C)nn(C)c(=O)c1-c1c(-c2ccc(C(F)(F)F)cc2)sc2ccccc12` [1-130], which “herbicidal effect rating, A: late watergrass” value is on record?
Answer: The value was 2 (Herbicidal rate of 20% or more and less than 40%).

system: wild oat; test: Test Example 5: herbicidal effect by foliage application, plastic box (Table 20, symbol I); type: in vivo, wild oat (Avena fatua); conditions: foliage application, 320 g/ha, three weeks after application
In short: as §3

Question: Which “herbicidal effect grade, I: wild oat” value does the source give for `CCCC(=O)Oc1c(C)nn(C)c(=O)c1-c1c(-c2ccc(SC)cc2)sc2ccccc12` [1-037] here?
Answer: Its value is 1 (Herbicidal rate of 5% or more and less than 20%).

same assay, conditions: foliage application, AAH 320 g/ha, three weeks after application

Question: `CCCC(=O)Oc1c(C)nn(C)c(=O)c1-c1c(-c2ccc(C(F)(F)F)cc2)sc2ccccc12` [1-130] was tested. Which “I: wild oat, herbicidal effect” value did it give?
Answer: Its value is 0 (Herbicidal rate of 5% or less (almost no effect)).

system: oval-leafed pondweed; test: Test Example 2: herbicidal activity, application during weed generation under submerged conditions (Table 17, symbol C); type: in vivo, oval-leafed pondweed (Monochoria vaginalis); conditions: AAH 320 g/ha; application during weed generation, submerged conditions
In short: as §5

Question: How did the “herbicidal effect rating, C: oval-leafed pondweed” value turn out when `CCCC(=O)Oc1c(C)nn(C)c(=O)c1-c1c(-c2ccc(SC)cc2)sc2ccccc12` [1-037] was run?
Answer: Its value is 3 (Herbicidal rate of 40% or more and less than 70%).

Question: How did the “herbicidal effect rating, C: oval-leafed pondweed” value turn out when `CCCC(=O)Oc1c(C)nn(C)c(=O)c1-c1c(-c2ccc(C(F)(F)F)cc2)sc2ccccc12` [1-130] was run?
Answer: The value was 0 (Herbicidal rate of 5% or less (almost no effect)).

system: windgrass; test: Test Example 4: herbicidal effect by soil treatment (Table 19, symbol L); type: in vivo, windgrass (Apera spica-venti); conditions: AAH 320 g/ha
In short: as §1

Question: With `CCCC(=O)Oc1c(C)nn(C)c(=O)c1-c1c(-c2ccc(C(F)(F)F)cc2)sc2ccccc12` [1-130] as the molecule, how does the “L: windgrass, herbicidal effect rating” value read?
Answer: The value was 0 (Herbicidal rate of 5% or less (almost no effect)).

same assay, conditions: amount of applied herbicide 320 g/ha

Question: Which “herbicidal effect rating, L: windgrass” value does the source give for `CCCC(=O)Oc1c(C)nn(C)c(=O)c1-c1c(-c2ccc(SC)cc2)sc2ccccc12` [1-037] here?
Answer: Its value is 0 (Herbicidal rate of 5% or less (almost no effect)).

system: green foxtail; test: Test Example 5: herbicidal effect by foliage application, plastic box (Table 20, symbol G); type: in vivo, green foxtail (Setaria viridis); conditions: foliage application, 320 g/ha, three weeks after application
In short: as §3

Question: With `CCCC(=O)Oc1c(C)nn(C)c(=O)c1-c1c(-c2ccc(SC)cc2)sc2ccccc12` [1-037] as the molecule, how does the “herbicidal effect grade, G: green foxtail” value read?
Answer: The value was 5 (Herbicidal rate of 90% or more (almost completely withered)).

same assay, conditions: foliage application, AAH 320 g/ha, three weeks after application

Question: How did the “G: green foxtail, herbicidal effect” value turn out when `CCCC(=O)Oc1c(C)nn(C)c(=O)c1-c1c(-c2ccc(C(F)(F)F)cc2)sc2ccccc12` [1-130] was run?
Answer: Its value is 0 (Herbicidal rate of 5% or less (almost no effect)).

Source: patent US20230085307A1, “PYRIDAZINONE COMPOUND AND HERBICIDE” (NISSAN CHEMICAL CORPORATION, priority 2019, published 2023)
